“Also recorded” adds a separate entry of the source. Marks after values point to notes of the source that are not given here.
Columns and labels:
[1] = test system: mice subjected to controlled cortical impact (CCI) TBI; experiment: CCI TBI in mice: behavioral assessment; assay type: in vivo, mouse; settings: for CCI-induced asymmetry, elevated body swing test: 1 week post injury; for home cage activity during the initial 11 h following CCI: dark phase; for CCI-induced reduction in brake time (gait): left hind limb, 1 week after injury
Protocol: For behavioral analyses, mice were assessed for spatial memory, gait function, motor coordination/balance function and home cage activity. The animals were subsequently evaluated for cellular changes using histology and immunohistochemistry after euthanasia.
In order to develop a controlled cortical impact (CCI) model of TBI, mice were anesthetized with 2.5% 2,2,2-tribromoethanol (Avertin, 400 mg/kg, I.P.) (Sigma, St. Louis, MO, USA) and placed in a stereotaxic frame (Kopf Instruments, Tujunga, CA, USA). A 4 mm craniotomy was performed under sterile procedures; the craniotomy point was selected midway between the lambda and bregma sutures, and laterally midway between the central suture and the temporalis muscle. The skull fragment was then carefully removed without disruption of the underlying dura on the right side of the head. Before injury, the tip of the impactor was angled and kept perpendicular to the exposed cortical surface. The mouse CCI instrument consisted of an electromagnetic impactor, Impact One (Leica Biosystems Inc., Buffalo Grove, IL, USA) that allows independent manipulation of injury severity by adjusting the contact duration and velocity of a metal impactor and the depth of cortical deformation. In these experiments, the contact velocity was set at 5.0 m/s, the dwell time was set at 0.2 s, and the deformation depth was set at 1.5 mm to produce a moderate TBI. The injury site was cleaned and dried by use of sterile cotton tipped applicators prior to suturing the wound. During surgery and recovery, the body temperature of all animals was maintained at 36–37 °C by using a heating pad.
Behavioral tests were conducted 1 week and 2 weeks post the CCI/sham procedure, to evaluate motor function and coordination differences between groups, and to compare with data performed 1 week prior to either procedure. All behavioral tests were conducted during the animals’ day light cycle; home cages were moved to behavioral rooms at least 1 h before testing.
Home cage activity monitoring was automatically and non-intrusively monitored using the digital individually ventilated cage system (DVC™; Tecniplast). Mice were individually housed, and their activity was tracked for 3 days before CCI/sham and 7 days after CCI/sham procedures.
Beam Walking Test (BWT) was used to evaluate CCI-induced impairments in motor coordination. Mice have an intrinsic preference for a darkened enclosed environment, as compared to an open bright field. Each mouse was placed in a darkened one-side-open cube box for 2 min for habituation and then was brought to the other (light) end of the beam, to start the trial. Two beams were used in this study with the following dimensions: 0.6 cm or 1.2 cm (width) × 91 cm (length). The time taken for each mouse to traverse the beam to reach the dark cube box and the ‘immobility time’ spent between the moment a mouse was initially placed on the beam and it started walking were recorded. Two trials were recorded for each animal with the 1.2 cm-width beam, and an additional two trials with the 0.6 cm-width were subsequently recorded. The mean times to traverse the beam and the immobility times were calculated, and a plot was generated to evaluate treatment effects; these times were then used for statistical analysis.
Gait analysis was employed to assess gait parameters following a specific protocol provided by the DigiGait manufacturer (Mouse Specifics, Inc., Framingham, MA, USA). The study tracked gait function at three time points: baseline, 1-week prior to CCI (PRE), and 1- and 2-weeks post-CCI. At the beginning of the trial, mice were brought to the test chamber for habituation to the new environment for 2 min, and then were given a 1-min run at 5 cm/sec before a 1-min break. […] Videos were assessed using DigiGait software to evaluate parameters that included stride duration, length, paw angle, and stance for all four limbs, following Mouse Specifics, Inc.'s procedures. […]

chicken embryos = experiment: chicken embryo teratogenicity at E2.5; assay type: in vivo
Protocol: All studies with chicken embryos were performed in line with UK Home Office regulations and followed guidelines, standards and practices governed by the University of Aberdeen Ethics Committee (Scotland, UK). Fertilized chicken eggs were acquired from Henry Stewart & Co Ltd, Norfolk UK. […] Embryos were incubated at 37 °C to reach E2.5 (early developmental stages). Eggs were then opened and the embryonic membranes protecting the embryos were removed with forceps. Chicken embryos usually lie on one side, so the left side is directly against the yolk and the right side can be observed. […] Consequent to limited drug diffusion when applied to the right side of an embryo, the right side is deemed the ‘treatment’ side and the left (facing internally towards the yolk sac) is considered normal after treatment and thus can act as an internal control.

[2] = LPS-induced inflammation in RAW 264.7 cells (viability, nitrite, TNF-α); assay type: cell-based, mouse; settings: mouse, RAW 264.7 cells, RAW 264.7, 0.6 to 60 μM, LPS 20 ng/mL, MTS, read-out: cellular viability
Protocol: (§1) RAW 264.7 cell culture: RAW 264.7 cells were obtained from ATCC (Manassas, VA, USA) and grown in Dulbecco’s modified Eagle’s (DMEM), high glucose, GlutaMAX™ media supplemented with 10% FBS (ThermoFisher Scientific, Asheville, NC, USA). Cells were maintained at 37 °C and 5% CO2, were propagated as described by ATCC guidelines, and were cultured as previously communicated. […] One hour later, cells were challenged with lipopolysaccharide (LPS) (20 ng/ml, E. Coli O55:B5, Sigma, St Louis, MO, USA; Cat # L4005). This LPS concentration was selected from pilot studies to provide a submaximal inflammatory insult. Twenty-four hours later, culture media was collected to quantify cell viability (CellTiter 96® Aqueous One Solution Cell Proliferation Assay kit (MTS); Promega, Madison, WI, USA, Cat # G3580), secreted TNF-α protein (ELISA MAX™ Deluxe Set Mouse TNF-α, BioLegend, CA, USA; Cat # 430915) and nitrite (Griess Reagent System, Promega, Madison, WI, USA; Cat # G2930).

RAW 264.7 cells = experiment: as above; assay type: cell-based, mouse; settings: RAW 264.7, LPS 20 ng/mL, 24 h, p < 0.05
Protocol: as §1

[3] = 100 μg/ml; data derive from ref 64; cited from earlier work
[4] = high dose, initial 5 min on Day 2, 1 week after CCI, vs CCI + Vehicle
[5] = high dose, vs CCI + vehicle, p < 0.05
[6] = low dose, p < 0.05 vs CCI + Vehicle

Compound: Nc1cccc2c1C(=S)N(C1CCC(=O)NC1=O)C2=O (stereo not shown) [3-MP, 3-monothiopomalidomide]
- CCI-induced elevation of swing duration CV (gait) ([1]; both low and high doses, p < 0.05 vs CCI + Vehicle): significantly reduced
- CCI-induced asymmetry, elevated body swing test ([1]; high dose): trend towards normalization
- home cage activity during the initial 11 h following CCI ([1]; high dose, vs CCI + vehicle): did not reach statistical significance
- discrimination index (DI) of distance traveled ([1]; high dose, initial 5 min, vs CCI + Vehicle): substantially higher
- ambulatory time in the center zone, novelty-dependent exploration test [1, 4]: significantly lower
- distance traveled, novelty-dependent exploration test [1, 4]: significantly lower
- CCI-induced reduction in brake time (gait) ([1]; high dose, p < 0.05): significantly alleviated
- discrimination index (DI) of duration in the center [1, 5]: significantly higher
- home cage activity on the day after CCI [1, 5]: significantly higher
- lower home cage activity 24 h later (night + 1) ([1]; low dose and high dose, vs CCI + vehicle, p < 0.05): significantly mitigated
- CCI-induced asymmetry, elevated body swing test [1, 6]: notably reduced
- home cage activity during the initial 11 h following CCI ([1]; low dose, vs CCI + vehicle, p < 0.05): notably higher
- CCI-induced reduction in brake time (gait) ([1]; low dose): trend towards improvement
- paw angle impairment (gait) [1, 6]: mitigated
- developmental effect on chicken embryos (chicken embryos; E2.5, 2.65 to 132 ug, 24 h exposure, vs DMSO controls): not teratogenic; also recorded: no adverse developmental differences or damage
- Normal embryos (chicken embryos; E2.5, dose 2.65 ug, N 2, 24 h): 2
- Normal embryos (chicken embryos; E2.5, dose 5.3 ug, N 3, 24 h): 3
- Normal embryos (chicken embryos; E2.5, dose 20 ug, N 5, 24 h): 5
- Not counted embryos (died soon after application, methodology-related) (chicken embryos; E2.5, dose 26.4 ug, N 7): 2^a
- Normal embryos (chicken embryos; E2.5, dose 26.4 ug, N 7, 24 h): 5
- Not counted embryos (died soon after application, methodology-related) (chicken embryos; E2.5, dose 52.8 ug, N 5): 2^a
- Normal embryos (chicken embryos; E2.5, dose 52.8 ug, N 5, 24 h): 3
- Normal embryos (chicken embryos; E2.5, dose 66 ug, N 3, 24 h): 3
- Normal embryos (chicken embryos; E2.5, dose 132 ug, N 3, 24 h): 3
- viability at 24 h [2]: > 90%
- concentration significantly reducing LPS-induced TNF-α (RAW 264.7 cells): ≥ 30 µM
- concentration significantly reducing LPS-induced nitrite (RAW 264.7 cells): ≥ 10 µM
- ex vivo stability in human plasma [3]: stable

From PMC12172326 (Journal of Biomedical Science, 2025)
